Patent publication US9018411B2, “Bis-acylated hydroxylamine derivatives” (Cardioxyl Pharmaceuticals, Inc., priority 2009, dated 2015)

Columns and labels:
[1] = Decomposition of compound in PBS buffer, pH 7.4 determined by HPLC; format: physicochemical; conditions: 37° C. under argon; for half-life: read-out: approximate half-life (in parentheses in Decomp. Time column)
Description: (§1) The ability of compounds to donate HNO is assessed. N2O results are reported relative to Angeli's salt. All decompositions are carried out at 37° C. under argon.

[2] = HNO production via N2O quantification (GC headspace analysis); format: physicochemical; conditions: 37° C. under argon, N2O relative to Angeli's salt; for % N2O DI: compound incubated in DI water; for % N2O pH 7.4: compound incubated in PBS buffer; for % N2O pH 10.3: compound incubated in pH 10.3 carbonate buffer
Description: (§2) Nitrous oxide is produced via the dimerization and dehydration of HNO, and is the most common marker for HNO production (Fukuto, J. M. et al., Chem. Res. Toxicol. 2005, 18, 790-801).
as §1

[3] = test system: esterase; assay: HNO production via N2O quantification in PBS buffer, pH 7.4 with added esterase; format: in vitro ADME; conditions: pH 7.4 with 2-4 mg added esterase, 37° C. under argon, N2O relative to Angeli's salt
Description: as §2, §1

| SMILES | Decomp. Time (time required for complete decomposition) [1] [h] | % N2O DI [2] [%] | % N2O pH 7.4 [2] [%] | half-life [1] [min] | % N2O esterase [3] [%] | % N2O pH 10.3 [2] [%] |
| --- | --- | --- | --- | --- | --- | --- |
| O=C(ON(Cl)C(=O)c1ccccc1)c1ccccc1 [Compound 1, N-chloro-N-benzoyloxy-benzamide] | <3 | 29 | 1 |  |  |  |
| O=C(ON(Cl)C(=O)c1ccc(Cl)cc1)c1ccc(Cl)cc1 [Compound 2, N-chloro-N-(4-chlorobenzoyloxy)-4-chlorobenzamide] | <3 | 32 | 1 |  |  |  |
| CC(=O)ON(Cl)C(=O)c1ccccc1 [Compound 6, N-chloro-N-acetoxy-benzamide] | <3 |  | 2 |  |  |  |
| O=C(ON(Cl)C(=O)c1ccccc1)C(Cl)Cl [Compound 7, N-chloro-N-dichloroacetyloxy- benzamide] | <3 |  | 7 |  |  |  |
| O=C(c1ccccc1)N(Cl)OC(=O)C(F)(F)F [Compound 8, N-chloro-N-(2,2,2-trifluoroacetoxy)benzamide] | <3 |  | 2 |  |  |  |
| CC(=O)ON(Cl)C(C)=O [Compound 9, N-chloro-N-acetyloxy-acetamide] | <3 | 80 | 15 |  |  |  |
| CC(=O)ON(Cl)C(=O)OC(C)(C)C [Compound 10, N-chloro-N-acetyloxy-tert-butyl- carbamate] | <3 | 98 | 39 |  |  |  |
| CCOC(=O)ON(Cl)C(=O)OCC [Compound 11, N-chloro-ethyl-carbonoxy-ethyl- carbamate] | <3 | 31 | 12 |  |  |  |
| CC(C)(C)C(=O)ON(Cl)C(=O)C(C)(C)C [Compound 12, N-chloro-N-(trimethylacetyloxy)- trimethylacetamide] | <3 | 37 | 1 |  |  |  |
| CC(C)(C)OC(=O)N(Cl)OC(=O)c1ccc([N+](=O)[O-])cc1 [Compound 13] | <3 | 9 |  |  |  |  |
| CC(=O)ON(Cl)C(=O)C(C)(C)C [Compound 14, N-chloro-N-(acetyloxy)- trimethylacetamide] | <3 | 48 | 6 |  |  |  |
| CC(=O)ON(Br)C(C)=O [Compound 15, N-bromo-N-acetyloxy-acetamide] | <3 |  | 7 |  |  |  |
| CC(=O)ON(C(C)=O)S(=O)(=O)c1ccc(Cl)cc1 [Compound 18, N-(4-chlorobenzenesulfonyl)-N-acetyloxy-acetamide] | <3 |  | 4 |  |  |  |
| CC(=O)ON(C(C)=O)S(=O)(=O)c1ccccc1Br [Compound 19, N-(2-bromobenzenesulfonyl)-N-acetyloxy-acetamide] | < 2 |  | 35 | ~20 |  |  |
| CC(=O)ON(C(C)=O)S(=O)(=O)c1ccccc1Cl [Compound 20, N-(2-chlorobenzenesulfonyl)-N-acetyloxy-acetamide] | <3 |  | 23 |  |  |  |
| CC(=O)ON(C(C)=O)S(=O)(=O)c1c(F)cc(F)cc1Br [Compound 21, N-(2-bromo-4,6-difluoro-benzenesulfonyl)-N-acetyloxy-acetamide] | <3 |  | 39 |  |  |  |

| SMILES | Decomp. Time (time required for complete decomposition) [1] [h] | % N2O DI [2] [%] | % N2O pH 7.4 [2] [%] | half-life [1] [min] | % N2O esterase [3] [%] | % N2O pH 10.3 [2] [%] |
| --- | --- | --- | --- | --- | --- | --- |
| CC(=O)ON(C(C)=O)S(=O)(=O)c1c(Br)cccc1Br [Compound 22, N-(2,6-dibromobenzenesulfonyl)-N-acetyloxy-acetamide] | < 2 |  | 71 | ~20 |  |  |
| CC(=O)ON(C(C)=O)S(=O)(=O)c1c(Cl)cccc1Cl [Compound 23, N-(2,6-dichlorobenzenesulfonyl)-N-acetyloxy-acetamide] | < 3 |  | 56 | ~40 | 57 | 56 |
| CC(=O)ON(C(C)=O)S(=O)(=O)c1c(F)cccc1F [Compound 24, N-(2,6-difluorobenzenesulfonyl)-N-acetyloxy-acetamide] | < 3 |  | 23 | ~30 |  |  |
| CC(=O)ON(C(C)=O)S(=O)(=O)c1ccccc1[N+](=O)[O-] [Compound 25, N-(2-nitrobenzenesulfonyl)-N-acetyloxy-acetamide] | <3 |  | 13 |  |  |  |
| CC(=O)ON(C(C)=O)S(=O)(=O)CCl [Compound 26, N-(chloromethylsulfonyl)-N- acetyloxy-acetamide] | <3 |  | 13 |  |  |  |
| CCOC(=O)N(OC(C)=O)S(=O)(=O)c1c(Cl)cccc1Cl [Compound 27] | <3 |  | 57 |  |  |  |
| CC(=O)ON(C(=O)c1ccccc1)S(=O)(=O)c1c(Cl)cccc1Cl [Compound 28, N-(2,6-dichlorobenzenesulfonyl)-N-acetyloxy-benzamide] | <3 |  | 17 |  |  | 44 |
| CC(=O)ON(C(=O)OCc1ccccc1)S(=O)(=O)c1c(Cl)cccc1Cl [Compound 29, N-(2,6-dichlorobenzenesulfonyl)-N-acetyloxy-benzyl-carbamate] | <3 |  | 21 |  | 83 | 52 |
| CC(=O)ON(C(=O)C(Cl)Cl)S(=O)(=O)c1c(Cl)cccc1Cl [Compound 30, N-(2,6-dichlorobenzenesulfonyl)-N-acetyloxy-dichloroacetamide] | <3 |  | 3 |  |  | 8 |
| CC(=O)ON(C(=O)C(C)(C)C)S(=O)(=O)c1cc(Cl)ccc1Cl [Compound 31, N-(2,5-dichlorobenzenesulfonyl)-N-acetyloxy-trimethylacetamide] | <20 |  | 5 |  |  |  |
| CC(=O)ON(C(=O)C(C)(C)C)S(=O)(=O)c1ccccc1[N+](=O)[O-] [Compound 32, N-(2-nitrobenzenesulfonyl)-N-acetyloxy-trimethylacetamide] | >20 |  | 0 |  |  |  |
| CC(=O)ON(C(=O)C(C)(C)C)S(=O)(=O)c1c(Cl)cccc1Cl [Compound 33, N-(2,6-dichlorobenzenesulfonyl)-N-acetyloxy-trimethylacetamide] | <20 |  | 1 |  |  | 33 |
| CC(=O)ON(C(=O)OC(C)(C)C)S(=O)(=O)c1ccccc1Br [Compound 36, N-(2-bromobenzenesulfonyl)-N-acetyloxy-tert-butyl-carbamate] | <2 |  | 7 |  | 67 |  |
| CC(=O)ON(C(=O)OC(C)(C)C)S(=O)(=O)c1c(Cl)cccc1Cl [Compound 37, N-(2,6-dichlorobenzenesulfonyl)-N-acetyloxy-tert-butyl-carbamate] | <3 |  | 4 |  | 85 |  |
| CC(=O)ON(C(=O)OC(C)(C)C)S(=O)(=O)c1c(Br)cccc1Br [Compound 38, N-(2,6-dibromobenzenesulfonyl)-N-acetyloxy-tert-butyl-carbamate] | <3 |  | 3 |  | 73 | 37 |
| CC(C)(C)OC(=O)N(OC(=O)c1ccc([N+](=O)[O-])cc1)S(=O)(=O)c1c(Cl)cccc1Cl [Compound 40] | <3 |  | 0 |  |  |  |
